Converted amounts (≈) assume the structure as drawn.
Tests used:
[1] = Metabolic stability in mouse liver microsomes assessed as intrinsic clearance measured per mg protein at 2 to 5 mins; assay type: ADME, Microsome; conditions: time 2-5 min, read-out: CLH
[2] = Metabolic stability in human liver microsomes assessed as intrinsic clearance measured per mg protein; assay type: ADME, Microsome; conditions: read-out: CLH
[3] = Kinetic solubility of the compound at pH 2.0 by nephelometry; assay type: physicochemical; conditions: buffer, read-out: Kinetic_solubility
[4] = Cytotoxicity against human THP-1 cells assessed as cell growth inhibition; assay type: toxicity, cell-based
[5] = Metabolic stability in mouse liver microsomes assessed as half life measured at 2 to 5 mins; assay type: ADME, Microsome; conditions: time 2-5 min
[6] = Selectivity index, ratio of CC50 for cytotoxicity against human THP-1 cells to IC50 for antileishmanial activity against Leishmania donovani infected in human THP-1 cells; assay type: toxicity, cell-based; conditions: read-out: Ratio CC50/IC50
[7] = Metabolic stability in human liver microsomes assessed as half-life; assay type: ADME, Microsome
Leishmania donovani [8] = test: Antileishmanial activity against Leishmania donovani infected in human THP-1 cells assessed as growth inhibition by intramacrophage assay; assay type: functional, organism-based
[9] = Kinetic solubility of the compound at pH 6.5 by nephelometry; assay type: physicochemical; conditions: buffer, read-out: Kinetic_solubility
[10] = Solubility of the compound in DMSO; assay type: physicochemical
Leishmania donovani [11] = test: Antileishmanial activity against Leishmania donovani infected in human THP-1 cells assessed as growth inhibition at 100 uM by intramacrophage assay; assay type: functional; parameters: scale not given: the % may be the effect or the level left
[12] = Cytotoxicity against human HepG2 cells assessed as cell growth inhibition at 100 uM; assay type: toxicity, cell-based; conditions: read-out: Activity
[13] = Cytotoxicity against human HepG2 cells assessed as cell growth inhibition; assay type: toxicity, cell-based
[14] = Metabolic stability in mouse liver microsomes assessed as half life; assay type: ADME, Microsome
Leishmania donovani [15] = test: Antileishmanial activity against Leishmania donovani axenic amastigotes assessed as growth inhibition by fluorescence intensity readout assay; assay type: functional, organism-based
[16] = Metabolic stability in mouse liver microsomes assessed as intrinsic clearance measured per mg protein; assay type: ADME, Microsome; conditions: read-out: CLH
[17] = Lipophilicity, log P of the compound; assay type: physicochemical; conditions: octanol/water
[18] = Solubility of the compound upto 800 uM; assay type: physicochemical
[19] = (§1) Cytotoxicity against human HepG2 cells assessed as inhibition of cell growth under glucose containing medium by crabtree effect assay; assay type: toxicity, cell-based; conditions: HepG2 cells
HepG2 [20] = test: Mitotoxicity in human HepG2 cells assessed as reduction in metabolic activity under glucose containing medium by crabtree effect assay; assay type: toxicity, cell-based
HepG2 [21] = test: Mitotoxicity in human HepG2 cells assessed as reduction in metabolic activity under galactose containing medium by crabtree effect assay; assay type: toxicity, cell-based
[22] = Drug degradation in human liver microsomes; assay type: ADME, Microsome; conditions: read-out: Drug degradation
HepG2 [23] = test: Cytotoxicity against human HepG2 cells assessed as inhibition of cell growth under galactose containing medium by crabtree effect assay; assay type: toxicity, cell-based
[24] = Stability in mouse liver microsomes assessed as parent compound remaining measured at 2 mins; assay type: ADME, Microsome
HepG2 [25] = test: as §1; assay type: toxicity, cell-based; conditions: hepg2

| SMILES | CC50 [4] [µM] | selectivity ratio [6] | IC50 (Leishmania donovani [8]) [µM] | Activity (Leishmania donovani [11]) [%] | inhibition at 100 µM [12] [%] | further results |
| --- | --- | --- | --- | --- | --- | --- |
| O=C(Nc1ncc(-c2ccccc2)o1)c1ccc(F)cc1 | 17 | 15 | 1.1 |  |  | microsomal CLint [1]: 352 µL/min/mg; microsomal CLint [2]: 90 µL/min/mg; solubility kinetic [3]: 25 µg/mL (≈ 88.6 µM); half-life [5]: 5 min; half-life [7]: 19 min; solubility kinetic [9]: 6.3 µg/mL (≈ 22.3 µM) |
| COc1ccc(-c2cnc(NC(=O)C3CCCCC3)n2C)cc1 | > 100 | > 1 | > 100 | <50 | < 50 | solubility [10]: Insoluble |
| COc1ccc(-c2cnc(NC(=O)c3ccc(F)cc3)n2C)cc1 | ≥ 50 | > 8.3 |  |  | < 50 | microsomal CLint [2]: 30 µL/min/mg; solubility kinetic [3]: 12.5 µg/mL (≈ 38.4 µM); CC50 [13]: 100 µM; half-life [14]: 4 min; IC50 (Leishmania donovani [15]): 3.2 µM; microsomal CLint [16]: 396 µL/min/mg; logP [17]: 3.6; half-life [7]: 59 min; solubility kinetic [9]: < 1.6 µg/mL |
| COc1ccc(-c2cnc3nc(-c4ccc(F)cc4)[nH]c3c2)cc1 | > 100 | > 1 | > 100 | <50 | < 50 | solubility [18]: Insoluble |
| COc1ccc(-c2cnc(NC(=O)c3ccccc3)n2C)cc1 | > 100 | > 3.6 | 28 |  | < 50 | solubility [10]: Insoluble |
| Cn1c(-c2cccc(Cl)c2)cnc1NC(=O)c1ncc[nH]1 | 55 | 74 | 0.74 |  |  | CC50 [19]: 17 µM; Activity (HepG2 [20]): Non-Toxic; microsomal CLint [2]: 8 µL/min/mg; solubility kinetic [3]: 12.5 µg/mL (≈ 41.4 µM); Activity (HepG2 [21]): Non-Toxic; half-life [14]: 82 min; metabolised [22]: < 15%; microsomal CLint [16]: 21 µL/min/mg; half-life [7]: 229 min; Activity (HepG2 [23]): Non-Toxic; solubility kinetic [9]: 3.1 µg/mL (≈ 10.3 µM) |
| Cn1c(-c2ccccc2)cnc1NC(=O)c1ncc[nH]1 | > 100 | > 16 | 6.4 |  | < 50 | Stability [24]: Unstable; microsomal CLint [2]: 20 µL/min/mg; half-life [14]: < 2 min; microsomal CLint [16]: > 866 µL/min/mg; half-life [7]: 88 min |
| COc1ccc(-c2ccc(NC(=O)c3ccc(F)cc3)nc2)cc1 | > 100 | > 1 | > 100 | <50 | < 50 | solubility [10]: Insoluble |
| COc1ccc(-c2cnc(NC(=O)c3cccc(C)c3)n2C)cc1 | > 100 | > 1 | > 100 |  | < 50 | solubility [10]: Insoluble |
| COc1ccc(-c2cnc(NC(=O)c3cc(-c4ccccn4)n[nH]3)n2C)cc1 | ≥ 50 | > 19 |  |  | < 50 | CC50 [13]: 100 µM; IC50 (Leishmania donovani [15]): 4 µM; logP [17]: 3.2 |
| COc1ccc(-c2nc3ncc(-c4ccc(F)cc4)cc3[nH]2)cc1 | > 100 | > 1 | > 100 | <50 | < 50 | solubility [18]: Insoluble |
| CCCC(=O)Nc1ncc(-c2ccc(OC)cc2)n1C | > 100 | > 1 | > 100 | <50 | < 50 |  |
| CCCCn1c(-c2ccc(OC)cc2)cnc1NC(=O)c1ccc(F)cc1 | > 100 | > 5.6 | > 100 | <50 | < 50 |  |
| Cn1c(-c2ccccc2)cnc1NC(=O)c1ccc(F)cc1 | > 100 | > 2.8 | 36 |  | < 50 | solubility kinetic [3]: 25 µg/mL (≈ 84.7 µM); solubility kinetic [9]: 25 µg/mL (≈ 84.7 µM) |
| COc1ccc(-c2cnc(NC(=O)c3cnc[nH]3)n2C)cc1 | > 100 | > 1 | > 100 | <50 | < 50 |  |
| COc1ccc(-c2cnc(NC(=O)C3CCNCC3)n2C)cc1 | > 100 | > 1 | > 100 | <50 | < 50 |  |
| Cn1c(-c2ccc(Cl)cc2)cnc1NC(=O)c1ncc[nH]1 | 52 | 100 | 0.52 |  |  | Activity (HepG2 [25]): Non-Toxic; Activity (HepG2 [20]): Non-Toxic; microsomal CLint [2]: < 7 µL/min/mg; solubility kinetic [3]: 50 µg/mL (≈ 166 µM); Activity (HepG2 [21]): Non-Toxic; half-life [14]: 43 min; metabolised [22]: < 15%; microsomal CLint [16]: 41 µL/min/mg; half-life [7]: > 255 min; Activity (HepG2 [23]): Non-Toxic; solubility kinetic [9]: 25 µg/mL (≈ 82.9 µM) |
| Cn1c(-c2ccc(F)cc2)cnc1NC(=O)c1ccc(F)cc1 | > 100 | > 1 | > 100 | <50 | < 50 |  |
| COc1ccc(-c2cnc(NC(=O)c3ccc([N+](=O)[O-])cc3)n2C)cc1 | > 100 | > 1 | > 100 | <50 | < 50 |  |
| Cn1c(-c2ccccc2F)cnc1NC(=O)c1ccc(F)cc1 | > 100 | > 1 | > 100 | <50 | < 50 |  |
| COc1ccc(-c2cnc(NC(=O)c3ncc[nH]3)n2C)cc1 | > 100 | > 9.1 | 11 | <50 | < 50 | microsomal CLint [2]: < 7 µL/min/mg; solubility kinetic [3]: > 100 µg/mL; half-life [14]: 3 min; metabolised [22]: < 15%; microsomal CLint [16]: 511 µL/min/mg; half-life [7]: > 255 min; solubility kinetic [9]: 6.3 µg/mL (≈ 21.2 µM) |

Source: ChEMBL document CHEMBL5113486, “Hit-to-lead optimization of novel phenyl imidazole carboxamides that are active against Leishmania donovani” (Eur J Med Chem, 2022)
